In patent US9708628B2, “Cationic lipid having improved intracellular kinetics” (NOF CORPORATION, priority 2011, dated 2017):

Assays:
HT1080 cells = assay: Gene expression by MEND (luciferase assay, RLU/mg protein); format: cell-based; conditions: cationic lipid:SOPE:Chol=3:4:3, PEG2000DSG; pDNA 0.4 μg/well, 24 hr
Description: Using B-2 (Example 1), B-2-1 (Comparative Example 1), and DODAP (Comparative Example 2) as cationic lipids, MENDs having a composition of cationic lipid:SOPE:Chol=3:4:3 were prepared by the method described in [Experimental Example 1] (2). For the preparation, PEG2000DSG was used as PEG lipid, and MEND solutions corresponding to 0.55 mM of the lipid concentration were prepared. For cationic MEND, lipids having a composition of DOTAP:DOPE:Chol:=3:4:3 were used, and the cationic MEND was prepared according to the method described in [Experimental Example 1] (3).
HT1080 cells were plated on a 24-well plate at 4×10^4 cells/500 μL/well 24 hr before, various MENDs were diluted with DMEM (FBS 10%+) to a pDNA amount of 0.4 μg/500 μL/well and transfected. 24 hr later, the cells were washed with PBS(−) (500 μL), 1× Lysis buffer was added to each well by 75 μL, and the mixture was stood at −80° C. for 30 min or longer. The frozen 24-well plate was thawed on ice, the cells were detached with a cell scraper, and the total amount thereof was transferred into an Eppendorf tube and centrifuged under the conditions of 15000 rpm, 4° C., 5 min. The supernatant (50 μL) was recovered in a different Eppendorf tube, and used for luciferase assay and BCA assay.
20 μL thereof was mixed with a Luciferase assay substrate (50 μL), and the luciferase activity in a given time was measured by a luminometer. The obtained lysate was diluted 5-fold with DDW to achieve 25 μL total volume. Thereto was added BCA Protein Assay Reagent (200 μL), and the mixture was stood at 37° C. for 30 min. Thereafter, the absorbance at 562 nm was measured, and the protein amount of the sample was calculated from the absorbance of a BSA solution having a known concentration. The luciferase activity (RLU) was adjusted by dividing with protein amount (mg), and the luciferase activity per cell protein amount (RLU/mg protein) was calculated.
Using B-2 (Example 1), B-2-2 (Example 2), and B-2-3 (Example 3) as cationic lipids, MENDs having a composition of cationic lipid:SOPE:Chol=3:4:3 were prepared by the method described in [Experimental Example 1] (2). For the preparation, PEG2000DSG was used as PEG lipid, and MEND solutions corresponding to 0.55 mM of the lipid concentration were prepared. The gene expression was evaluated by the method described in [Example 4] (2).
Using compositions of B-2-4 (Example 4):DOPE:Chol=3:3:4, B-2-5 (Example 5):POPE:Chol=3:3:4, B-2 (Example 1):SOPE:Chol=5:3:2 as lipids, MENDs were prepared according to [Experimental Example 1](1) and (2). For the preparation, PEG2000-DMG was used as PEG lipid, and MEND solutions corresponding to 0.55 mM of the lipid concentration were prepared.
The gene expression activity was evaluated by the method described in [Experimental Example 4] (2).

[1] = Particle size and surface potential of pDNA-encapsulating MENDs, dynamic light scattering (Zetasizer Nano); format: physicochemical; conditions: pDNA MEND, cationic lipid:SOPE:Chol = 3:4:3
Description: A solution of pDNA encoding luciferase gene and protamine (CALBIOCHEM) solution were diluted with 10 mM HEPES buffer to 0.3 mg/mL and […], respectively. While stirring 0.3 mg/mL pDNA (125 μL), 0.24 mg/mL protamine (125 μL) was added dropwise in small portions to prepared an electrostatic complex of protamine and pDNA (N/P ratio=1.2) as a core of the vector. In the method described in the following (2), 10 mM HEPES buffer (pH 5.3) was used and, in the method described in (3), 10 mM HEPES buffer (pH 7.4) was used.
A lipid solution in ethanol was prepared by mixing 5 mM cationic lipid, 5 mM phospholipid and 5 mM cholesterol (Chol) at desired ratios to achieve 165 nmol total lipid in an Eppendorf tube, further adding various PEG lipids (1 mM solution in ethanol) in an amount corresponding to 3 mol % of the total lipid, and adding ethanol to achieve a total volume of 100 μL. While stirring the lipid solution in a vortex mixer, 100 μL of the nucleic acid electrostatic complex (10 mM HEPES; pH 5.3) prepared in [Experimental Example 1] (1) was quickly added, and thereafter 10 mM HEPES buffer (1.8 mL, adjusted to pH 5.3) was added to dilute the mixture to an ethanol concentration of 5%. The mixture was concentrated to about 50 μL by ultrafiltration using Amicon Ultra 4 (Millipore) under centrifugation conditions (room temperature, 2267 rpm, 20 min). Thereafter, it was diluted to 4 mL with 100 mM HEPES buffer (adjusted to pH 7.4), and again concentrated by centrifugation (2267 rpm, 20 min) under room temperature conditions. Finally, it was diluted with 10 mM HEPES buffer (pH 7.4) to a desired lipid concentration.
A solution of each lipid in chloroform (5 mM DOTAP 24.75 μL, 5 mM DOPE 33 μL, 5 mM Chol 24.75 μL) were mixed in a glass test tube at DOTAP:DOPE:Chol=3:4:3 to achieve 412.5 nmol total lipid. Ethanol was added to a total amount of 250 μL, and the mixture was dried under reduced pressure in a desiccator. The solvent was evaporated to give a lipid thin film. To the lipid thin film was added 250 μL of the gene electrostatic complex (in 10 mM HEPES; pH 7.4) prepared in [Experimental Example 1] (1) to a total lipid concentration of 1.65 mM, and the mixture was stood at room temperature for 10 min to allow for hydration, and sonicated by a sonicator (AIWA MEDICAL […] CO., LTD.) for 1 min.
The particle size and the surface potential were measured by the dynamic light scattering method (Zetasizer Nano; Malve Rn). The particle size and the surface potential of the various MENDs prepared by the preparation method of [Experimental Example 1] are shown in Table 3. The charge of B-2 and DODAP at physiological pH was in a preferable mode of −10 to +10 mV, whereas that of B-2-1 was +12.3, which is not less than +10 mV.
(1) MEND having a composition of B-2-4 (Example 4):DOPE:Chol=3:3:4 or B-2-5 (Example 5):POPE:Chol=3:4:3 was prepared according to the method described in [Experimental Example 1] (1) and (2).
The particle size and the surface potential were measured by the dynamic light scattering method (Zetasizer Nano; Malvern). The particle size and the surface potential of the various MENDs prepared by the preparation method of [Experimental Example 1] are shown in Table 4.

Factor VII (FVII) = assay: Knockdown effect of siRNA-encapsulated MEND prepared by t-BuOH injecting method; format: in vivo, ICR mice; conditions: varying doses of siRNA, tail vein
Description: A MEND solution prepared by the method shown in [Experimental Example 28] was administered to 4-week-old male ICR mice at 3 mg siRNA/kg from the tail vein, and blood was collected 24 hr later. This blood sample was centrifuged at 1000 g, 10 min, 4° C., and the supernatant was recovered to obtain plasma. The amount of Factor VII (FVII) in the plasma was quantified by BIOPHEN FVII CHROMOGENIC ASSAY (HYPHEN BioMed).
(§1) A lipid solution in t-BuOH with a composition of cationic lipid/cholesterol=70/30, DMG-PEG2000 3% and a total lipid amount of 3000 nmol/400 μL (7.5 mM) was prepared in a 1.7 mL tube. In a separate 1.7 mL tube, an siRNA solution was prepared by mixing an siRNA aqueous solution containing siRNA (160 μg) and 20 mM malate buffer (pH 4.00, 30 mM NaCl) to total 50 μL. With vigorous stirring of the lipid solution, the siRNA solution was gradually added dropwise, and the mixed solution was taken in a 1 mL syringe. Then, 20 mM malate buffer (pH 4.00, 30 mM NaCl, 2 mL) was added into a 5 mL tube, and the mixed solution was gradually injected with vigorous stirring. Thereafter, the mixture was further diluted with PBS (7 mL) and centrifuged at 1000 g, 30° C. for 10 min in Amicon Ultra-15-100K to a volume of less than 1.5 mL. PBS (15 mL) was added, and the solution was centrifuged again to about 500-1000 μL. Finally, the MEND solution was adjusted by diluting with PBS to the object lipid concentration.
MENDs prepared by the method shown in Experimental Example 32 were administered by a method similar to the method shown in Experimental Example 30 with varying doses of siRNA, and the knockdown effect was evaluated. The results are shown in FIG. 35, FIG. 36, and FIG. 37.

[2] = Particle size and surface potential of siRNA MENDs prepared by t-BuOH injecting method; format: physicochemical; conditions: siRNA MEND; for PDI / size (nm) / zeta (mV): cationic lipid/cholesterol=70/30, DMG-PEG2000 3%
Description: as §1
The particle size and surface potential of various MENDs were measured according to the method described in [Experimental Example 2] and the results are shown in Table 6.

| PDI [1] | size (nm) [1] | zeta (mV) [1] | PDI [2] | size (nm) [2] | zeta (mV) [2] | charge at physiological pH [2] | SMILES | gene expression activity (luciferase activity per cell protein) (HT1080 cells) | FVII expression level (knockdown effect) (Factor VII (FVII)) |
| --- | --- | --- | --- | --- | --- | --- | --- | --- | --- |
| 0.132 | 134.6 nm | −5.77 mV |  |  |  |  | CCCCCCCCCCCCCCCCCC(=O)OCCCN(C)CCSSCCN(C)CCCOC(=O)CCCCCCCCCCCCCCCCC [Example B-2-2] | inferior to that of B-2, but exceeds that of conventional pH-responsive lipid cationic lipid, DODAP |  |
|  |  |  | 0.13 | 125 nm | −6.4 mV |  | Cc1c(C)c2c(c(C)c1OC(=O)CCC(=O)OCCCCCN(CCSSCCN(CCCCCOC(=O)CCC(=O)Oc1c(C)c(C)c3c(c1C)CCC(C)(CCCC(C)CCCC(C)CCCC(C)C)O3)C(C)C)C(C)C)CCC(C)(CCCC(C)CCCC(C)CCCC(C)C)O2 (stereo not drawn) [TS-C5P] |  |  |
|  |  |  | 0.13 | 120 nm | −13.0 mV |  | Cc1c(C)c2c(c(C)c1OC(=O)CCCC(=O)OCCCN(C)CCSSCCN(C)CCCOC(=O)CCCC(=O)Oc1c(C)c(C)c3c(c1C)CCC(C)(CCCC(C)CCCC(C)CCCC(C)C)O3)CCC(C)(CCCC(C)CCCC(C)CCCC(C)C)O2 (stereo not drawn) [TG-C3M] |  |  |
|  |  |  | 0.07 | 118 nm | −9.8 mV |  | CCN(CCCCOC(=O)CCC(=O)Oc1c(C)c(C)c2c(c1C)CCC(C)(CCCC(C)CCCC(C)CCCC(C)C)O2)CCSSCCN(CC)CCCCOC(=O)CCC(=O)Oc1c(C)c(C)c2c(c1C)CCC(C)(CCCC(C)CCCC(C)CCCC(C)C)O2 (stereo not drawn) [TS-C4E] |  |  |
| 0.091 | 148.7 nm | −7.97 mV |  |  |  |  | CCCCC/C=C\C/C=C\CCCCCCCC(=O)OCCCN(C)CCSSCCN(C)CCCOC(=O)CCCCCCC/C=C\C/C=C\CCCCC [Example B-2-3] | inferior to that of B-2, but exceeds that of conventional pH-responsive lipid cationic lipid, DODAP |  |
|  |  |  | 0.21 | 93 nm | 7.0 mV | weak positive charge | Cc1c(C)c2c(c(C)c1OC(=O)CCC(=O)NCCCN(C)CCSSCCN(C)CCCNC(=O)CCC(=O)Oc1c(C)c(C)c3c(c1C)CCC(C)(CCCC(C)CCCC(C)CCCC(C)C)O3)CCC(C)(CCCC(C)CCCC(C)CCCC(C)C)O2 (stereo not drawn) [TSamide-C3M] |  |  |

Continued, molecule first:

| SMILES | PDI [1] | size (nm) [1] | zeta (mV) [1] | PDI [2] | size (nm) [2] | zeta (mV) [2] | charge at physiological pH [2] | gene expression activity (luciferase activity per cell protein) (HT1080 cells) | FVII expression level (knockdown effect) (Factor VII (FVII)) |
| --- | --- | --- | --- | --- | --- | --- | --- | --- | --- |
| Cc1c(C)c2c(c(C)c1OC(=O)CCC(=O)OCCC1CCN(CCSSCCN3CCC(CCOC(=O)CCC(=O)Oc4c(C)c(C)c5c(c4C)CCC(C)(CCCC(C)CCCC(C)CCCC(C)C)O5)CC3)CC1)CCC(C)(CCCC(C)CCCC(C)CCCC(C)C)O2 (stereo not drawn) [TS-P4C2] |  |  |  | 0.07 | 125 nm | −8.5 mV |  |  | highest knockdown effect |
| Cc1c(C)c2c(c(C)c1OC(=O)CCC(=O)OCC1CCCN(CCSSCCN3CCCC(COC(=O)CCC(=O)Oc4c(C)c(C)c5c(c4C)CCC(C)(CCCC(C)CCCC(C)CCCC(C)C)O5)C3)C1)CCC(C)(CCCC(C)CCCC(C)CCCC(C)C)O2 (stereo not drawn) [TS-P3C1] |  |  |  | 0.13 | 118 nm | −9.8 mV |  |  |  |
| Cc1c(C)c2c(c(C)c1OC(=O)CCC(=O)OCCCC1CCN(CCSSCCN3CCC(CCCOC(=O)CCC(=O)Oc4c(C)c(C)c5c(c4C)CCC(C)(CCCC(C)CCCC(C)CCCC(C)C)O5)CC3)CC1)CCC(C)(CCCC(C)CCCC(C)CCCC(C)C)O2 (stereo not drawn) [TS-P4C3] |  |  |  | 0.09 | 123 nm | −6.6 mV |  |  | highest knockdown effect |
| Cc1c(C)c2c(c(C)c1OC(=O)CCC(=O)OCC1CCCCN1CCSSCCN1CCCCC1COC(=O)CCC(=O)Oc1c(C)c(C)c3c(c1C)CCC(C)(CCCC(C)CCCC(C)CCCC(C)C)O3)CCC(C)(CCCC(C)CCCC(C)CCCC(C)C)O2 (stereo not drawn) [TS-P2C1] |  |  |  | 0.12 | 114 nm | −12.2 mV |  |  |  |
| Cc1c(C)c2c(c(C)c1OC(=O)CCC(=O)OCC1CCN(CCSSCCN3CCC(COC(=O)CCC(=O)Oc4c(C)c(C)c5c(c4C)CCC(C)(CCCC(C)CCCC(C)CCCC(C)C)O5)CC3)CC1)CCC(C)(CCCC(C)CCCC(C)CCCC(C)C)O2 (stereo not drawn) [TS-P4C1] |  |  |  | 0.13 | 113 nm | −11.9 mV |  |  | highest knockdown effect |
